Test [1] addresses T1, GPR40 (Homo sapiens, UniProt O14842).
T1 construct: host or cells: CHO-K1 (Cell bank of the Chinese Academy of Sciences, GNHa 7), retrovirus infection
Put plainly: Agonist activity on CHO-K1/GPR40 cell (Fluo-4 calcium fluorescence). The class given is cell-based. To be noted: CHO-K1 cell line expressing GPR40, calcium ion fluorescence. The source says: Agonist activity of compounds of the present disclosure on CHO-K1/GPR40 cell.
The following method was used to determine the agonist activity of compounds of the present disclosure on GPR40. The experiment process is described as follows:
CHO-K1/GPR40 cell (CHO-K1 cell line expressing GPR40, which was constructed using retrovirus infection method, CHO-K1/GPR40 cell for short, wherein CHO-K1 cell was purchased from Cell bank of the Chinese Academy of Sciences, catalogue number GNHa 7; GPR40 cDNA was purchased from Guangzhou FulenGen Co., Ltd, catalogue number EX-UO270-MO2) was inoculated in a 96-well plate with an inoculation density of 25000 cells/well. The cell plate was incubated at 37° C. and 5% CO2 for 24 hours. The cell culture fluid was discarded during the experiment, the cells were washed with buffer solution (1×HBSS+20 mM HEPES pH 7.4) once, 100 μL of Fluo-4 calcium ion dye was quickly added into each well, incubated at 37° C. in the dark for 30 minutes, and then at room temperature for another 30 minutes. During the determination, the baseline value of each well was read at first, and then different concentrations of drug were added to the wells (50 μL/well), and the fluorescence values were then read. The fluorescence excitation wavelength was 494 nm and the emission wavelength was 516 nm. The increase of fluorescence intensity was proportional to calcium ion level in the cells. Cell response rate of each cell/(The maximum fluorescence value−The minimum fluorescence value)/The minimum fluorescence value. EC50 values of the compounds were calculated

The test system of test [2] is ICR mice fed on a high fat diet. Briefly: Oral glucose tolerance test (OGTT) in glucose load mice fed on a high fat diet. It is filed as in vivo. Conditions: blood glucose AUC, high fat diet ICR male mice. The procedure:
ICR mice fed on a high fat diet were used as test animals. The effect of oral administration of a single dose of the compounds of the present disclosure on oral glucose tolerance test (OGTT) of glucose load mice was studied.
Compounds of Example 1, Example 2, Example 13, Example 16, Example 18, Example 19 and Example 26
Healthy ICR male mice were purchased from SINO-BRITSH SIPPR/BK LAB. ANIMAL LTD., CO, License number: SCXK (Shanghai) 2008-0016
The test compounds were added to aqueous 0.5% CMC-Na solution to prepare the corresponding concentration suspension using microwave.
After an overnight fast for 16 hours, male mice fed on a high fat diet were weighed, and the basic blood glucose was determined. The mice were randomly divided into a Blank group and the group of each test compound of the present disclosure according to the level of blood glucose.
The dosage of administration was 20 mg/kg or 40 mg/kg, and the Blank group was administered aqueous 0.5 CMC-Na solution.
20% Glucose solution was administered 15 minutes after intragastrical administration (each mouse was administered 0.4 mL)
The compounds were administered according to the aforesaid dosage to determine the blood glucose value (−15 minutes).
At 15 minutes after administration, 20% glucose solution was administrated at a dose of 2 g/kg and the blood glucose values at 0, 15, 30, 45, 60 and 120 minutes in each mouse were determined by Roche Accu-Chek blood glucose monitoring meter.
Using Excel statistical software: the average value was calculated with avg; SD value was calculated with STDEV; and P value of difference among groups was calculated with TTEST. • AUC calculation formula: AUC=(t15min+t0min)×0.25/2+(t30min+t15min)×0.25/2+(t45min+t30min)×0.25/2+(t60min+t45min)×0.25/2+(t120min+t60min)×1/2 • Wherein t0min, t15min, t30min, t45min, t60min, t120min were blood glucose values determined at different time points.

T1 sequence (O14842 whole entry): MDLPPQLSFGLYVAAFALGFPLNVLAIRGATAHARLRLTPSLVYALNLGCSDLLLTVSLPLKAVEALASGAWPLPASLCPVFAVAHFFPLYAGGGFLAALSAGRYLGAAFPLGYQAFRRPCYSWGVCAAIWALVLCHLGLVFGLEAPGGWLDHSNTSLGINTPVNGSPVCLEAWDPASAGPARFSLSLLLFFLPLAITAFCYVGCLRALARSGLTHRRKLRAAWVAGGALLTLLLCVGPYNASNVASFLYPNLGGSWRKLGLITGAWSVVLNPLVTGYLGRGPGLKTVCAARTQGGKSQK

The term EC50 denotes the midpoint of the concentration-response curve. As to `Cc1cc(O[C@H]2CCOC2)cc(C)c1-c1cccc(COc2ccc3c(c2)OC[C@@H]3CC(=O)O)c1` [Example 34, 2-((R)-6-((2′,6′-dimethyl-4′-(((S)-tetrahydrofuran-3-yl)oxy)biphenyl-3-yl)methoxy)-2,3-dihydrobenzofuran-3-yl)acetic acid], the EC50 in test [1] worked out at 113 nM. Take `Cc1cc(O[C@@H]2CCOC2)c(F)c(C)c1-c1cccc(COc2ccc3c(c2)OC[C@H]3CC(=O)O)c1` [Example 28, 2-((S)-6-((3′-fluoro-2′,6′-dimethyl-4′-(((R)-tetrahydrofuran-3-yl)oxy)biphenyl-3-yl)methoxy)-2,3-dihydrobenzofuran-3-yl)acetic acid]: the 50% effective concentration (EC50) in test [1] turned out to be 82 nM. In the case of `Cc1cc(OC2CN(C(=O)CO)C2)cc(C)c1-c1cccc(COc2ccc3c(c2)OC[C@H]3CC(=O)O)c1` [Example 21, (S)-2-(6-((4′-((1-(2-hydroxyacetyl)azetidin-3-yl)oxy)-2′,6′-dimethylbiphenyl-3-yl)methoxy)-2,3-dihydrobenzofuran-3-yl)acetic acid], the EC50 in test [1] stood at 131 nM.

In the case of `Cc1cc(O[C@H]2CCOC2)cc(C)c1-c1ccc(F)c(COc2ccc3c(c2)OC[C@H]3CC(=O)O)c1` [Example 18, 2-((S)-6-((4-Fluoro-2′,6′-dimethyl-4′-(((S)-tetrahydrofuran-3-yl)oxy)biphenyl-3-yl)methoxy)-2,3-dihydrobenzofuran-3-yl)acetic acid], the “AUC decrease rate %” value in test [2] (single oral dose 40 mg/kg) is on record as 44.13%. In addition, the EC50 in test [1] came out at 28 nM. For the molecule `Cc1cc(O[C@H]2CCOC2)cc(C)c1-c1cccc(COc2ccc3c(c2)OC[C@H]3CC(=O)O)c1C` [Example 12, 2-((S)-6-((2,2′,6′-Trimethyl-4′-(((S)-tetrahydrofuran-3-yl)oxy)biphenyl-3-yl)methoxy)-2,3-dihydrobenzofuran-3-yl)acetic acid], the EC50 in test [1] was 113 nM. Same read-out and setting: then `Cc1cc(OC2CCN(C(=O)[C@H](C)O)CC2)cc(C)c1-c1cccc(COc2ccc3c(c2)OC[C@H]3CC(=O)O)c1` [Example 22, 2-((S)-6-((4′-((1-((S)-2-hydroxypropanoyl)piperidin-4-yl)oxy)-2′,6′-dimethylbiphenyl-3-yl)methoxy)-2,3-dihydrobenzofuran-3-yl)acetic acid], with 77 nM; and `Cc1cc(O[C@@H]2CC[C@H](O)[C@@H]2O)cc(C)c1-c1cccc(COc2ccc3c(c2)OC[C@H]3CC(=O)O)c1` [Example 25, 2-((S)-6-((4′-(((1R,2S,3S)-2,3-dihydroxycyclopentyl)oxy)-2′,6′-dimethylbiphenyl-3-yl)methoxy)-2,3-dihydrobenzofuran-3-yl)acetic acid], with 31 nM. Take `Cc1cc(OC2CCNCC2)cc(C)c1-c1cccc(COc2ccc3c(c2)OC[C@H]3CC(=O)O)c1` [Example 4, (S)-2-(6-((2′,6′-Dimethyl-4′-(piperidin-4-yloxy)biphenyl-3-yl)methoxy)-2,3-dihydrobenzofuran-3-yl)acetic acid]: the EC50 in test [1] turned out to be 81 nM. The same measure, in the same setting: then `Cc1cc(O[C@@H]2CCN(S(C)(=O)=O)C2)cc(C)c1-c1cccc(COc2ccc3c(c2)OC[C@H]3CC(=O)O)c1` [Example 11, 2-((S)-6-((2′,6′-Dimethyl-4′-(((R)-1-(methylsulfonyl)pyrrolidin-3-yl)oxy)biphenyl-3-yl)methoxy)-2,3-dihydrobenzofuran-3-yl)acetic acid], with 73 nM; and `Cc1cc(O[C@@H]2CCC[C@H]2O)cc(C)c1-c1cccc(COc2ccc3c(c2)OC[C@H]3CC(=O)O)c1` (mixture of isomers) [Example 17, 2-((S)-6-((4′-(((1R,2R)/(1S,2S)-2-Hydroxycyclopentyl)oxy)-2′,6′-dimethylbiphenyl-3-yl)methoxy)-2,3-dihydrobenzofuran-3-yl)acetic acid], with 157 nM. As for `Cc1cc(O[C@H]2COC[C@@H]2O)cc(C)c1-c1cccc(COc2ccc3c(c2)OC[C@H]3CC(=O)O)c1` [Example 29, 2-((S)-6-((4′-(((3S,4S)-4-hydroxytetrahydrofuran-3-yl)oxy)-2′,6′-dimethylbiphenyl-3-yl)methoxy)-2,3-dihydrobenzofuran-3-yl)acetic acid], the “AUC decrease rate %” value in test [2] (single oral dose 20 mg/kg) turned out to be 20.41%. Besides, the EC50 in test [1] amounted to 41 nM.

For `Cc1cc(OC2CNC2)cc(C)c1-c1cccc(COc2ccc3c(c2)OC[C@H]3CC(=O)O)c1` [Example 16, (S)-2-(6-((4′-(Azetidin-3-yloxy)-2′,6′-dimethylbiphenyl-3-yl)methoxy)-2,3-dihydrobenzofuran-3-yl)acetic acid], the “AUC decrease rate %” value in test [2] (single oral dose 40 mg/kg) was found to be 15.72%. Also, in test [1], the EC50 turned out to be 15 nM. Take `Cc1cc(O[C@H]2CCOC2)c(F)c(C)c1-c1cccc(COc2ccc3c(c2)OC[C@H]3CC(=O)O)c1` [Example 19, 2-((S)-6-((3′-Fluoro-2′,6′-dimethyl-4′-(((S)-tetrahydrofuran-3-yl)oxy)biphenyl-3-yl)methoxy)-2,3-dihydrobenzofuran-3-yl)acetic acid]: the “AUC decrease rate %” value in test [2] (single oral dose 40 mg/kg) was 36.78%. For the same molecule, the EC50 in test [1] worked out at 55 nM. Regarding `Cc1ccc(-c2c(C)cc(O[C@H]3CCOC3)cc2C)cc1COc1ccc2c(c1)OC[C@H]2CC(=O)O` [Example 27, 2-((S)-6-((2′,4,6′-trimethyl-4′-(((S)-tetrahydrofuran-3-yl)oxy)biphenyl-3-yl)methoxy)-2,3-dihydrobenzofuran-3-yl)acetic acid], the EC50 in test [1] worked out at 53 nM.

On to `Cc1cc(O[C@H]2CCN(S(C)(=O)=O)C2)cc(C)c1-c1cccc(COc2ccc3c(c2)OC[C@H]3CC(=O)O)c1` [Example 8, 2-((S)-6-((2′,6′-Dimethyl-4′-(((S)-1-(methylsulfonyl)pyrrolidin-3-yl)oxy)biphenyl-3-yl)methoxy)-2,3-dihydrobenzofuran-3-yl)acetic acid], for which, in test [1], the 50% effective concentration (EC50) stood at 88 nM.

Turning to `Cc1cc(OC2CN(C(=O)[C@H](C)O)C2)cc(C)c1-c1cccc(COc2ccc3c(c2)OC[C@H]3CC(=O)O)c1` [Example 20, 2-((S)-6-((4′-((1-((S)-2-hydroxypropanoyl)azetidin-3-yl)oxy)-2′,6′-dimethylbiphenyl-3-yl)methoxy)-2,3-dihydrobenzofuran-3-yl)acetic acid], the EC50 in test [1] turned out to be 140 nM. Turning to `COC(=O)N1CCC(Oc2cc(C)c(-c3cccc(COc4ccc5c(c4)OC[C@H]5CC(=O)O)c3)c(C)c2)CC1` [Example 23, (S)-2-(6-((4′-((1-(methoxycarbonyl)piperidin-4-yl)oxy)-2′,6′-dimethylbiphenyl-3-yl)methoxy)-2,3-dihydrobenzofuran-3-yl)acetic acid], the EC50 in test [1] stood at 141 nM. Consider `Cc1cc(O[C@@H]2CCOC2)cc(C)c1-c1ccc(F)c(COc2ccc3c(c2)OC[C@H]3CC(=O)O)c1` [Example 26, 2-((S)-6-((4-fluoro-2′,6′-dimethyl-4′-(((R)-tetrahydrofuran-3-yl)oxy)biphenyl-3-yl)methoxy)-2,3-dihydrobenzofuran-3-yl)acetic acid], for which the “AUC decrease rate %” value in test [2] (single oral dose 40 mg/kg) is 26.06%. Also, in test [1], the EC50 was determined as 52 nM. As to `Cc1cc(OC2CCCC2)cc(C)c1-c1cccc(COc2ccc3c(c2)OC[C@H]3CC(=O)O)c1` [Example 10, (S)-2-(6-((4′-(Cyclopentyloxy)-2′,6′-dimethylbiphenyl-3-yl)methoxy)-2,3-dihydrobenzofuran-3-yl)acetic acid], the EC50 in test [1] came to 134 nM. Take `Cc1cc(OC2CCN(S(C)(=O)=O)CC2)cc(C)c1-c1cccc(COc2ccc3c(c2)OC[C@H]3CC(=O)O)c1` [Example 5, (S)-2-(6-((2′,6′-Dimethyl-4′-((1-(methylsulfonyl)piperidin-4-yl)oxy)biphenyl-3-yl)methoxy)-2,3-dihydrobenzofuran-3-yl)acetic acid]: the concentration for a half-maximal effect (EC50) in test [1] was found to be 107 nM.

Turning to `Cc1cc(O[C@@H]2CCOC2)cc(C)c1-c1cccc(COc2ccc3c(c2)OC[C@@H]3CC(=O)O)c1` [Example 33, 2-((R)-6-((2′,6′-dimethyl-4′-(((R)-tetrahydrofuran-3-yl)oxy)biphenyl-3-yl)methoxy)-2,3-dihydrobenzofuran-3-yl)acetic acid], in test [1], the EC50 was found to be 113 nM.

Source of the values: patent US9139548B2, “Polycyclic derivatives, preparation process and pharmaceutical use thereof” (Jiangsu Hengrui Medicine Co., Ltd., priority 2012, dated 2015).
